Results taken from patent US20100152210A1, “PURINYL DERIVATIVES AND THEIR USE AS POTASSIUM CHANNEL MODULATORS” (NEURO SEARCH A/S/, priority 2007, published 2010).

Molecular target: T1, hSK3 channels (Homo sapiens, UniProt Q9UGI6)
T1 construct: expressed in transfected cells; host or cells: HEK293
Experiment: Whole-cell patch-clamp recording of SK3 current in HEK293 cells expressing hSK3 channels
Format: cell-based
Experimental: The ionic current through small-conductance Ca^2+-activated K^+ channels (SK channels, subtype 3) is recorded using the whole-cell configuration of the patch-clamp technique in a classic patch-clamp set-up using HEK293 tissue culture cells expressing hSK3 channels as described in e.g. WO 2006/100212.
The SC100 value determined is defined as the Stimulating Concentration required for increasing the baseline current by 100%. The below SC100 value is an indication of the SK3 activating properties of the compounds of the invention.

The SC100 (Stimulating Concentration required for increasing the baseline current by 100%): 0.04 µM
Compound: Cc1cc(C)n(-c2nc(Nc3ccc(Cl)cc3)c3ncn(Cc4ccccc4)c3n2)n1 [Compound 9.1, [9-Benzyl-2-(3,5-dimethyl-pyrazol-1-yl)-9H-purin-6-yl]-(4-chloro-phenyl)-amine]
